Converted amounts (≈) assume the structure as drawn.
Assays:
Assay type in all cases: cell-based
[1] = tested on: Streptococcus mutans UA159; test: growth of S. mutans in planktonic culture (optical density at 600 nm, BHI medium); conditions: rich medium, FIG. 1
Protocol: Bacterial Strain. The strain of Streptococcus mutans used in these experiments is referred to as UA159, the genomic type strain of these organisms (Murchison et al., Infect. Immun. 54(2):273-82 (1986); Ajdic et al., Proc. Natl. Acad. Sci. USA 99(22):14434-9 (2002)). Growth experiments. Two types of growth experiments were conducted: growth of the organism in planktonic culture and growth of the organism in a mono-species biofilm culture. In the planktonic culture experiments, the effects of simvastatin concentration on the growth ability of Streptococcus mutans UA159 was determined. In the second set of experiments, the effects of simvastatin concentration on the ability of S. mutans to produce extracellular polysaccharides (EPS), which is highly related to its ability to grow and survive on the surfaces of teeth (Yamashita et al., Infect. Immun 61(9):3811-7 (1993)), was determined. The planktonic experiments were conducted by growing S. mutans in Brain Heart Infusion medium (BHI) supplemented with specific concentrations of simvastatin dissolved in 1% ethanol/99% water. Simvastatin was obtained from Sigma Chemical Co. (St. Louis, Mo.). Growth was monitored as increasing optical density at 600 nm, using a BioScreen C automated-recording instrument, set at 37° C. and with shaking set at 10 seconds, every 15 minutes, to ensure suspension of the culture (Growth Curves USA, N.J.). […]

E. faecium = test: minimum inhibitory concentration against a panel of human pathogens; conditions: Enterococcus faecium
Protocol: (§1) Using well established methodologies, the minimum inhibitory concentration of simvastatin was determined against a panel of human pathogens.

P. aeruginosa = test: as above; conditions: Pseudomonas aeruginosa
Protocol: as §1

S. aureus = test: as above; conditions: Staphylococcus aureus
Protocol: as §1

E. faecalis = test: as above; conditions: Enterococcus faecalis
Protocol: as §1

Klebsiella = test: as above
Protocol: as §1

S. mutans = test: as above; conditions: Streptococcus mutans
Protocol: as §1

`CCC(C)(C)C(=O)O[C@H]1C[C@@H](C)C=C2C=C[C@H](C)[C@H](CC[C@@H]3C[C@@H](O)CC(=O)O3)[C@H]21` [simvastatin] was tested, and the “concentration at which growth was effectively halted” value [1] was ≥ 64 µg/mL, the MIC (E. faecium) was 64 µg/mL (≈ 153 µM) and the MIC (P. aeruginosa) was > 256 µg/mL. The MIC (S. aureus) was 64 µg/mL (≈ 153 µM), the MIC (E. faecalis) was 64 µg/mL (≈ 153 µM) and the MIC (Klebsiella) was 64 µg/mL (≈ 153 µM). The MIC (S. mutans) was 16 µg/mL (≈ 38.2 µM).

— patent publication US20140186271A1, “REDUCING DENTAL CARIES” (UNIVERSITY OF ROCHESTER, priority 2011, published 2014)
